From article PMC6152416, “Pharmacological and Toxicological Screening of Novel Benzimidazole-Morpholine Derivatives as Dual-Acting Inhibitors” (Molecules : A Journal of Synthetic Chemistry and Natural …, 2017)
Where two headings read alike, the source gives them in different places.

Key:
[1] = biological target: AChE (Homo sapiens, UniProt P22303); type: biochemical
Protocol: Inhibition potency of the test compounds against AChE was determined using Ellman’s method. Enzyme solutions were prepared in gelatin solution (1%, w/v), at the concentration of 2.5 units/mL. […] AChE solution (20 µL/well) and test solution (20 µL/well) were added to phosphate buffer solution (140 µL/well, pH 8.0 ± 0.1), and incubated at 25 °C for 5 min. […] The production of the yellow anion was recorded by multimode microplate reader for 10 min at 412 nm. As a control, an identical solution of the enzyme without the inhibitor was processed. The control and the inhibitor readings were corrected with blank-readings. All processes were assayed in four independent determinations.

[2] = biological target: T1, human recombinant MAO-A (Homo sapiens, UniProt P21397); experiment: MAO inhibition assay (kynuramine, fluorimetric); type: biochemical
T1 sequence (P21397 1-527): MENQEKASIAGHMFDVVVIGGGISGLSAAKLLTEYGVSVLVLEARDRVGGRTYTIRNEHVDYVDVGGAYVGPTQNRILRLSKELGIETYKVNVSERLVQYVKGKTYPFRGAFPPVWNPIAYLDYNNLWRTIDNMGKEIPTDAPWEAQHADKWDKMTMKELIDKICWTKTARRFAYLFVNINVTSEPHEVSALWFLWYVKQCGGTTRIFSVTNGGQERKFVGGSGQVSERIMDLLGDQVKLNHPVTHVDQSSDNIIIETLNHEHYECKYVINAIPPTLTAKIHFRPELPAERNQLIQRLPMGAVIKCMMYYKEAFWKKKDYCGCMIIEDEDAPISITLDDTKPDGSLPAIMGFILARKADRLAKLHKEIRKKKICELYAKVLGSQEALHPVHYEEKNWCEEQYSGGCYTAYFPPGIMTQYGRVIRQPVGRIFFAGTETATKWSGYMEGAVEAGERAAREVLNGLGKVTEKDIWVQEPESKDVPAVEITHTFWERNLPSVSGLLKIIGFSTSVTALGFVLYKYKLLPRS
Protocol: (§1) Enzyme activity assays were performed according to the procedure reported by Matsumoto et al. with slight modifications. In order to prevent the destructive effect of light on MAO enzymes, the assays were performed in 96-well black plates. Phosphate buffer solution (0.1 M, pH = 7.4) was used for preparation of stock solutions (5 mg/mL) of both human recombinant MAO-A and MAO-B enzymes. […] The addition of the test compound solution was followed by addition of either MAO-A or MAO-B enzyme (50 μL/well) solutions. After 10 min of incubation at 37 °C, kynuramine (50 μL/well) was added and enzyme-substrate reaction was initiated. The plate was incubated for 20 min at 37 °C and then reaction was terminated by addition of 2 N NaOH (75 μL/well). The fluorimetric reads from the top was performed at 310 nm excitation and 380 nm emission wavelengths.

[3] = biological target: T2, human recombinant MAO-B (Homo sapiens, UniProt P27338); experiment: MAO inhibition assay (kynuramine, fluorimetric); type: biochemical
T2 sequence (P27338 1-520): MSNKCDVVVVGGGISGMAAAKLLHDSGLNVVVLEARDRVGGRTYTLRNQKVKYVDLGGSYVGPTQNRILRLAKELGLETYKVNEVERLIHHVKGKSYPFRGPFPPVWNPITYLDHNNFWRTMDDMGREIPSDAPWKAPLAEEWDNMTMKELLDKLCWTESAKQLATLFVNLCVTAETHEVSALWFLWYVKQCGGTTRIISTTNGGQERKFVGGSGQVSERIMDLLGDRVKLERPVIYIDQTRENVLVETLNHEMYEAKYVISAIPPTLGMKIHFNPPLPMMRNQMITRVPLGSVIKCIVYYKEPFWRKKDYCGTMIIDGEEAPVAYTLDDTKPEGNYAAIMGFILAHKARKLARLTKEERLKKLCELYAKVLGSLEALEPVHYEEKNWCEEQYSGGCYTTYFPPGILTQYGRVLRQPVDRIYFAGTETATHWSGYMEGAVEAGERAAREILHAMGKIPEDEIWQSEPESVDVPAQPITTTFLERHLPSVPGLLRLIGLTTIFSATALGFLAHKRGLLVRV
Protocol: as §1

[4] = MTT cytotoxicity assay; type: cell-based, mouse; conditions: mouse, NIH/3T3 mouse embryonic fibroblast cells, read-out: Cytotoxicity NIH3T3 Cells IC50
Protocol: (§2) Cytotoxicity was tested using NIH/3T3 mouse embryonic fibroblast cell line (ATCC® CRL-1658™, London, UK). NIH/3T3 cells were incubated according to the supplier’s recommendations. NIH/3T3 cells were seeded as 1 × 10^4 cells into each well of 96-well plates. MTT assay was performed as previously described. The compounds were tested between 1 mM and 0.000316 mM concentrations (1.0, 0.316, 0.10, 0.0316, 0.01, 0.00316, 0.001, 0.000316 mM). The IC50 values were determined by plotting a dose-response curve of inhibition % versus tested concentrations of the compound [62].

[5] = tested on: NIH/3T3 mouse embryonic fibroblast cell line; experiment: MTT cytotoxicity assay; type: cell-based; conditions: NIH/3T3
Protocol: as §2

Chain of AChE (P22303 32-614): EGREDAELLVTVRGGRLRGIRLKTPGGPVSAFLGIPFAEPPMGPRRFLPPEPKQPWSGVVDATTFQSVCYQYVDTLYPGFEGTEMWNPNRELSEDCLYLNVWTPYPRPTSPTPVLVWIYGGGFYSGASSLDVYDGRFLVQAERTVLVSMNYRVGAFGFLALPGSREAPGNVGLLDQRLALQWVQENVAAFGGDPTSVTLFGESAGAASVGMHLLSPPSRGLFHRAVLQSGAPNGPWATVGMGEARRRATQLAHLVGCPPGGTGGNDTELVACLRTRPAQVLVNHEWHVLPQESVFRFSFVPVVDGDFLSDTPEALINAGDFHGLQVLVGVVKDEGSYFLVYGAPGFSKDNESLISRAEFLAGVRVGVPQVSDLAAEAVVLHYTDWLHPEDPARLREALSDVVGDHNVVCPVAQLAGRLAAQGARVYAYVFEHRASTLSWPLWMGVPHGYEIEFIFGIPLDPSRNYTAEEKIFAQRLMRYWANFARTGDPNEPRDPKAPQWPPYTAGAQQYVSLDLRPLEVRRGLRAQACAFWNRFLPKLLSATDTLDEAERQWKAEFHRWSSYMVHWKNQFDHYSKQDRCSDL

| Compound | AChE Inhibition (%) ([1]; 10^-3 M) | AChE Inhibition (%) ([1]; 10^-4 M) | MAO-A Inhibition (%) ([2]; 10^-3 M) | MAO-A Inhibition (%) ([2]; 10^-4 M) | MAO-B Inhibition (%) ([3]; 10^-3 M) | MAO-B Inhibition (%) ([3]; 10^-4 M) | IC50 [4] [µM] | cytotoxicity in words [5] |
| --- | --- | --- | --- | --- | --- | --- | --- | --- |
| FC(F)(F)Oc1ccc(-c2nc3ccccc3n2CCN2CCOCC2)cc1 [Compound 2m, 2-(4-Trifluoromethoxyphenyl)-1-[2-(morpholin-4-yl)ethyl]-1H-benzimidazole] | 32.90 | 32.90 | 34.29 | 16.39 | 25.84 | 12.43 | 100 | non-cytotoxic |
| Clc1ccc(-c2nc3ccccc3n2CCN2CCOCC2)cc1 [Compound 2c, 2-(4-Chlorophenyl)-1-[2-(morpholin-4-yl)ethyl]-1H-benzimidazole] | 5.48 | 5.48 | 31.58 | 26.17 | 41.12 | 33.54 | – | – |
| CC(C)c1ccc(-c2nc3ccccc3n2CCN2CCOCC2)cc1 [Compound 2e, 2-(4-Isopropylphenyl)-1-[2-(morpholin-4-yl)ethyl]-1H-benzimidazole] | 17.51 | 17.51 | 24.29 | 17.31 | 35.47 | 26.65 | – | – |
| COc1ccc(-c2nc3ccccc3n2CCN2CCOCC2)cc1 [Compound 2b, 2-(4-Methoxyphenyl)-1-[2-(morpholin-4-yl)ethyl]-1H-benzimidazole] | 5.19 | 5.19 | 29.44 | 24.61 | 32.44 | 31.75 | 316 | non-cytotoxic |
| CCOc1ccc(-c2nc3ccccc3n2CCN2CCOCC2)cc1 [Compound 2j, 2-(4-Ethoxyphenyl)-1-[2-(morpholin-4-yl)ethyl]-1H-benzimidazole] | 7.20 | 7.20 | 28.47 | 19.42 | 41.73 | 32.44 | 316 | non-cytotoxic |
